Results taken from patent US20260327191A1, “GSK3a INHIBITORS AND METHODS OF USE THEREOF” (Blueprint Medicines Corporation, priority 2023, published 2026).

Assays:
human GSK3α = biological target: T1, human GSK3α (Homo sapiens, UniProt P49840); assay: In vitro enzymatic activity assay, GSK3α; type: biochemical; details: 1.0 mM ATP, 1.0 μM peptide substrate, 120 min, 25° C, read-out: Enzyme GSK3α (IC50)
T1 construct: Full length human GSK3α or GSK3B expressed as N-terminal GST fusion proteins; GST (N); purchased Carna Biosciences (Japan); host or cells: baculovirus host
T1 sequence (P49840 whole entry, the tested form may be a part): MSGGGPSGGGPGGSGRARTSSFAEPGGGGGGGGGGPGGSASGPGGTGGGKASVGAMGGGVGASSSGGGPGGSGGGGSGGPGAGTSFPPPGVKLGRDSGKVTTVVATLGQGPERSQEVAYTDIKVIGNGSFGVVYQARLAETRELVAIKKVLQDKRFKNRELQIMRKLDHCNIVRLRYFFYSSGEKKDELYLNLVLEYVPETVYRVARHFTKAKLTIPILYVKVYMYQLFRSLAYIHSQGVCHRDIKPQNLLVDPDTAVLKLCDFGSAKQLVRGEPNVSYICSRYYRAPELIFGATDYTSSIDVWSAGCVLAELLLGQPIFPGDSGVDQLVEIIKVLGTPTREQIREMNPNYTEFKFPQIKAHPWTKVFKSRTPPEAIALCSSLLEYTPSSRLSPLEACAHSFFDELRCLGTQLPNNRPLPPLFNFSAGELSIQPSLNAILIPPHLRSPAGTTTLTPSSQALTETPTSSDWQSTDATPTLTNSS

GSK3B [1] = biological target: T2, GSK3B (Homo sapiens, UniProt P49841); assay: NanoBRET cellular target engagement assay, Nanoluc-GSK3B in HEK293 cells; type: cell-based; parameters: expressed in transfected cells; details: NanoBRET GSK3β IC50, HEK293 cells, tracer K-8, 2 hours, 37° C
T2 sequence (P49841 whole entry, the tested form may be a part): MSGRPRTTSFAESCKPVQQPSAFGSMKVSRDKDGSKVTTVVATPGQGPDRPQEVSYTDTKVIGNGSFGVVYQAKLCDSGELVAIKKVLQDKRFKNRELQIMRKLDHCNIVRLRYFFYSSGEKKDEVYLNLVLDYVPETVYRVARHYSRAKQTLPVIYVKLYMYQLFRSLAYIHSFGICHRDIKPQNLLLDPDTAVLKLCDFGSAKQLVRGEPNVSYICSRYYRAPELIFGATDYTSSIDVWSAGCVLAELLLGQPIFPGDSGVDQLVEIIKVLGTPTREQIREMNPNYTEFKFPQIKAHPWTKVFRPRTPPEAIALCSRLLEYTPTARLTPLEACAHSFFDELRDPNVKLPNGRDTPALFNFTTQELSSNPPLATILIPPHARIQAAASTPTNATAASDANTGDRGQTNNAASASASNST

GSK3B [2] = biological target: T2, GSK3B; assay: In vitro enzymatic activity assay, GSK3β; type: biochemical; parameters: Full length human GSK3α or GSK3B expressed as N-terminal GST fusion proteins; GST (N); purchased Carna Biosciences (Japan); host or cells: baculovirus host; details: 1.0 mM ATP, 1.0 μM peptide substrate, 120 min, 25° C, read-out: Enzyme GSK3β (IC50)
GSK3A = biological target: T3, GSK3A (Homo sapiens, UniProt P49840); assay: NanoBRET cellular target engagement assay, Nanoluc-GSK3A in HEK293 cells; type: cell-based; details: NanoBRET GSK3α IC50, HEK293 cells, tracer K-8, 2 hours, 37° C
T3 construct: expressed in transfected cells
T3 sequence (P49840 whole entry): as the sequence (P49840 whole entry, the tested form may be a part) above

Row | SMILES | IC50 (human GSK3α) | IC50 (GSK3B [1]) | IC50 (GSK3B [2]) | IC50 (GSK3A)
1 | C#CCC(N)c1cncc(NC(=O)c2c(N)ncn(-c3c(Cl)cc(OCC)cc3Cl)c2=O)c1 (single isomer, unassigned) [Example 150, (R)-4-amino-N-(5-(1-aminobut-3-yn-1-yl)pyridin-3-yl)-1-(2,6-dichloro-4-ethoxyphenyl)-6-oxo-1,6-dihydropyrimidine-5-carboxamide or (S)-4-amino-N-(5-(1-aminobut-3-yn-1-yl)pyridin-3-yl)-1-(2,6-dichloro-4-ethoxyphenyl)-6-oxo-1,6-dihydropyrimidine-5-carboxamide] | 1.1 nM | 49.5 nM | 44.2 nM | 1 nM
2 | C#CCC(N)c1cncc(NC(=O)c2c(N)ncn(-c3c(Cl)cc(OCC)cc3Cl)c2=O)c1 (single isomer, unassigned) [Example 151, (R)-4-amino-N-(5-(1-aminobut-3-yn-1-yl)pyridin-3-yl)-1-(2,6-dichloro-4-ethoxyphenyl)-6-oxo-1,6-dihydropyrimidine-5-carboxamide or (S)-4-amino-N-(5-(1-aminobut-3-yn-1-yl)pyridin-3-yl)-1-(2,6-dichloro-4-ethoxyphenyl)-6-oxo-1,6-dihydropyrimidine-5-carboxamide] | 14.9 nM | 406 nM | 501 nM | 7.1 nM
3 | Cc1cc(CCF)cc(C)c1-n1cnc(N)c(C(=O)Nc2cncc(C(C)N)c2)c1=O (single isomer, unassigned) [Example 155, (R)-4-amino-N-(5-(1-aminoethyl)pyridin-3-yl)-1-(4-(2-fluoroethyl)-2,6-dimethylphenyl)-6-oxo-1,6-dihydropyrimidine-5-carboxamide or (S)-4-amino-N-(5-(1-aminoethyl)pyridin-3-yl)-1-(4-(2-fluoroethyl)-2,6-dimethylphenyl)-6-oxo-1,6-dihydropyrimidine-5-carboxamide] | 9.9 nM | 279 nM | 374 nM | 3.7 nM
4 | COc1ccccc1-n1cnc(N)c(C(=O)Nc2cccc(C3CCCN3)c2N2CCOCC2)c1=O (single isomer, unassigned) [Example 166, (S)-4-amino-1-(2-methoxyphenyl)-N-(2-morpholino-3-(pyrrolidin-2-yl)phenyl)-6-oxo-1,6-dihydropyrimidine-5-carboxamide or (R)-4-amino-1-(2-methoxyphenyl)-N-(2-morpholino-3-(pyrrolidin-2-yl)phenyl)-6-oxo-1,6-dihydropyrimidine-5-carboxamide] | 285 nM | 16100 nM | 9380 nM | 177 nM
5 | COc1c(NC(=O)c2c(N)ncn(-c3c(Cl)cccc3Cl)c2=O)cccc1C1CCCN1 (single isomer, unassigned) [Example 169, (R)-4-amino-1-(2,6-dichlorophenyl)-N-(2-methoxy-3-(pyrrolidin-2-yl)phenyl)-6-oxo-1,6-dihydropyrimidine-5-carboxamide or (S)-4-amino-1-(2,6-dichlorophenyl)-N-(2-methoxy-3-(pyrrolidin-2-yl)phenyl)-6-oxo-1,6-dihydropyrimidine-5-carboxamide] | 4.2 nM | 103 nM | 105 nM | 2 nM
6 | COc1cc(Cl)c(-n2cnc(N)c(C(=O)Nc3cnnc(C4CCCCN4)c3)c2=O)c(Cl)c1 (single isomer, unassigned) [Example 172, (R)-4-amino-1-(2,6-dichloro-4-methoxyphenyl)-6-oxo-N-(6-(piperidin-2-yl)pyridazin-4-yl)-1,6-dihydropyrimidine-5-carboxamide or (S)-4-amino-1-(2,6-dichloro-4-methoxyphenyl)-6-oxo-N-(6-(piperidin-2-yl)pyridazin-4-yl)-1,6-dihydropyrimidine-5-carboxamide] | 6.3 nM | 98.8 nM | 260 nM | 3.5 nM
7 | CO[C@H](C)c1cc(C)c(-n2cnc(N)c(C(=O)Nc3cncc([C@@H](C)N)c3)c2=O)c(C)c1 (single isomer, unassigned) [Example 174] | 28 nM | 560 nM | 705 nM | 8.7 nM
8 | CCOC[C@@H](N)c1cncc(NC(=O)c2c(N)ncn(-c3c(C)cc(COC)cc3C)c2=O)c1 (single isomer, unassigned) [Example 177, (S)-4-amino-N-(5-(1-amino-2-ethoxyethyl)pyridin-3-yl)-1-(4-(methoxymethyl)-2,6-dimethylphenyl)-6-oxo-1,6-dihydropyrimidine-5-carboxamide or (R)-4-amino-N-(5-(1-amino-2-ethoxyethyl)pyridin-3-yl)-1-(4-(methoxymethyl)-2,6-dimethylphenyl)-6-oxo-1,6-dihydropyrimidine-5-carboxamide] | 4 nM | 283 nM | 200 nM | 2.8 nM

Now from value to molecule:

Row | IC50 (human GSK3α) | IC50 (GSK3B [1]) | IC50 (GSK3B [2]) | IC50 (GSK3A) | SMILES
9 | 7.8 nM | 491 nM | 346 nM | 6.4 nM | CCC(N)c1cncc(NC(=O)c2c(N)ncn(-c3c(Cl)cncc3Cl)c2=O)c1 (single isomer, unassigned) [Example 153, (R)-4-amino-N-(5-(1-aminopropyl)pyridin-3-yl)-1-(3,5-dichloropyridin-4-yl)-6-oxo-1,6-dihydropyrimidine-5-carboxamide or (S)-4-amino-N-(5-(1-aminopropyl)pyridin-3-yl)-1-(3,5-dichloropyridin-4-yl)-6-oxo-1,6-dihydropyrimidine-5-carboxamide]
10 | 90.6 nM | 5790 nM | 2080 nM | 76.9 nM | COCc1cc(C)c(-n2cnc(N)c(C(=O)Nc3cncc(C4CNC(=O)CN4)c3)c2=O)c(C)c1 (single isomer, unassigned) [Example 159, (R)-4-amino-1-(4-(methoxymethyl)-2,6-dimethylphenyl)-6-oxo-N-(5-(5-oxopiperazin-2-yl)pyridin-3-yl)-1,6-dihydropyrimidine-5-carboxamide or (S)-4-amino-1-(4-(methoxymethyl)-2,6-dimethylphenyl)-6-oxo-N-(5-(5-oxopiperazin-2-yl)pyridin-3-yl)-1,6-dihydropyrimidine-5-carboxamide]
11 | 161 nM | 11300 nM | 2320 nM | 197 nM | COCc1cc(C)c(-n2cnc(N)c(C(=O)Nc3cncc(C4CNC(=O)CN4)c3)c2=O)c(C)c1 (single isomer, unassigned) [Example 160, (R)-4-amino-1-(4-(methoxymethyl)-2,6-dimethylphenyl)-6-oxo-N-(5-(5-oxopiperazin-2-yl)pyridin-3-yl)-1,6-dihydropyrimidine-5-carboxamide or (S)-4-amino-1-(4-(methoxymethyl)-2,6-dimethylphenyl)-6-oxo-N-(5-(5-oxopiperazin-2-yl)pyridin-3-yl)-1,6-dihydropyrimidine-5-carboxamide]
12 | 45.4 nM | 1860 nM | 1810 nM | 27.2 nM | Nc1ncn(-c2c(Cl)cccc2Cl)c(=O)c1C(=O)Nc1cccc(C2CCCN2)c1F (single isomer, unassigned) [Example 167, (S)-4-amino-1-(2,6-dichlorophenyl)-N-(2-fluoro-3-(pyrrolidin-2-yl)phenyl)-6-oxo-1,6-dihydropyrimidine-5-carboxamide or (R)-4-amino-1-(2,6-dichlorophenyl)-N-(2-fluoro-3-(pyrrolidin-2-yl)phenyl)-6-oxo-1,6-dihydropyrimidine-5-carboxamide]
13 | 49.3 nM | 1470 nM | 1530 nM | 27.1 nM | Nc1ncn(-c2c(Cl)cccc2Cl)c(=O)c1C(=O)Nc1cccc(C2CCCN2)c1F (single isomer, unassigned) [Example 168, (S)-4-amino-1-(2,6-dichlorophenyl)-N-(2-fluoro-3-(pyrrolidin-2-yl)phenyl)-6-oxo-1,6-dihydropyrimidine-5-carboxamide or (R)-4-amino-1-(2,6-dichlorophenyl)-N-(2-fluoro-3-(pyrrolidin-2-yl)phenyl)-6-oxo-1,6-dihydropyrimidine-5-carboxamide]
14 | 32.6 nM | 581 nM | 803 nM | 8.1 nM | CO[C@H](C)c1cc(C)c(-n2cnc(N)c(C(=O)Nc3cncc([C@@H](C)N)c3)c2=O)c(C)c1 (single isomer, unassigned) [Example 175]
15 | 6.4 nM | 322 nM | 298 nM | 4.7 nM | CC1CCC(c2cccc(NC(=O)c3c(N)ncn(-c4c(Cl)cccc4Cl)c3=O)c2)N1 (single isomer, unassigned) [Example 180, 4-amino-1-(2,6-dichlorophenyl)-N-(3-((2R,5R)-5-methylpyrrolidin-2-yl)phenyl)-6-oxo-1,6-dihydropyrimidine-5-carboxamide or 4-amino-1-(2,6-dichlorophenyl)-N-(3-((2S,5S)-5-methylpyrrolidin-2-yl)phenyl)-6-oxo-1,6-dihydropyrimidine-5-carboxamide]
